Results published in patent publication EP4678638A1, “NEW E3 UBIQUITIN LIGASE LIGAND, PROTEIN DEGRADATION AGENT AND USE THEREOF” (priority 2023, dated 2024).

Experiments:
[1] = target: T1, human Cereblon WT GST-tagged protein (Homo sapiens, UniProt Q96SW2); test: CRBN binding, HTRF (CEREBLON BINDING kit); settings: Table II-2, CRBN binding screening, HTRF
T1 construct: purchased CISBIO 64BDCRBNPEH
In short: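 After 3 h at room temperature, emission at 665 and 620 nm was measured in a homogeneous time-resolved fluorescence format. Compounds competed with a Thalidomide-Re probe for GST-tagged wild-type human CRBN, which was labelled with a Eu anti-GST antibody.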

WEE1 = target: T2, WEE1 (Homo sapiens, UniProt P30291+Q96SW2); test: Western blot degradation of WEE1 (hPBMC); assay type: cell-based; settings: Table D16
T2 construct: evaluate the effects of the compounds of the present disclosure on the expression of target proteins in cells; endogenous in cells; host or cells: hPBMC
In short: (§1)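 Quantification by ImageJ densitometry of Western blot bands: DC50 is the fitted concentration halving band intensity relative to DMSO. Percent remaining uses internal-control normalization, and degradation rate is its complement.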

IKZF1 = target: T3, IKZF1 (Homo sapiens, UniProt Q13422+Q96SW2); test: Western blot degradation of IKZF1 (hPBMC); assay type: cell-based; settings: Table D16
T3 construct: evaluate the effects of the compounds of the present disclosure on the expression of target proteins in cells; endogenous in cells; host or cells: hPBMC
In short: as §1

IKZF2 = target: T4, IKZF2 (Homo sapiens, UniProt Q96SW2+Q9UKS7); test: Western blot degradation of IKZF2 (hPBMC); assay type: cell-based; settings: Table D16
T4 construct: evaluate the effects of the compounds of the present disclosure on the expression of target proteins in cells; endogenous in cells; host or cells: hPBMC
In short: as §1

IKZF3 = target: T5, IKZF3 (Homo sapiens, UniProt Q96SW2+Q9UKT9); test: Western blot degradation of IKZF3 (hPBMC); assay type: cell-based; settings: Table D16
T5 construct: evaluate the effects of the compounds of the present disclosure on the expression of target proteins in cells; endogenous in cells; host or cells: hPBMC
In short: as §1

CK1a = target: T6, CK1a (Homo sapiens, UniProt P48729+Q96SW2); test: Western blot degradation of CK1a (hPBMC); assay type: cell-based; settings: Table D16
T6 construct: evaluate the effects of the compounds of the present disclosure on the expression of target proteins in cells; endogenous in cells; host or cells: hPBMC
In short: as §1

GSPT1 = target: T7, GSPT1 (Homo sapiens, UniProt P15170+Q96SW2); test: Western blot degradation of GSPT1 (hPBMC); assay type: cell-based; settings: Table D16
T7 construct: evaluate the effects of the compounds of the present disclosure on the expression of target proteins in cells; endogenous in cells; host or cells: hPBMC
In short: as §1

MCF7 = test: CCK-8 proliferation, MCF7 (MCF-7); assay type: cell-based; settings: Homo sapiens, MCF7; CCK-8; read-out: Inhibitory activity (IC50) on tumor cell proliferation, MCF-7
In short: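 Cells seeded, then after 24 h treated with 10 concentrations (top 10 µM, 5-fold serial dilution) for a line-specific time at 37°C, 5% CO2. Viability read by CCK-8; IC50 fitted from growth-inhibition curves.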

T4 sequence (Q9UKS7 whole entry): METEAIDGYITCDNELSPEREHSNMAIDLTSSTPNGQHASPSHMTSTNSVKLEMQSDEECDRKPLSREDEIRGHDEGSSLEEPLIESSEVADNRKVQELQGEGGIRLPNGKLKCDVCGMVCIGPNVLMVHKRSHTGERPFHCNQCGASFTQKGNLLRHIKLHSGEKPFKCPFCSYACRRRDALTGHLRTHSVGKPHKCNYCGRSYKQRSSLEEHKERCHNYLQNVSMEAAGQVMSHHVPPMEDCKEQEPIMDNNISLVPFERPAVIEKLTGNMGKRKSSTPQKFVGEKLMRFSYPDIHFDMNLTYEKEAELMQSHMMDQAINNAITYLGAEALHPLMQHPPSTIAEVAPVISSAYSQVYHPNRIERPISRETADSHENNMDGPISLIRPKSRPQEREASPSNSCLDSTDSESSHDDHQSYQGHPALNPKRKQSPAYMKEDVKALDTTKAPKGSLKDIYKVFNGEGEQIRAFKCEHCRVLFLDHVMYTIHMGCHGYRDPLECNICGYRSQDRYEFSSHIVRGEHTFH
T4 sequence (Q96SW2 whole entry): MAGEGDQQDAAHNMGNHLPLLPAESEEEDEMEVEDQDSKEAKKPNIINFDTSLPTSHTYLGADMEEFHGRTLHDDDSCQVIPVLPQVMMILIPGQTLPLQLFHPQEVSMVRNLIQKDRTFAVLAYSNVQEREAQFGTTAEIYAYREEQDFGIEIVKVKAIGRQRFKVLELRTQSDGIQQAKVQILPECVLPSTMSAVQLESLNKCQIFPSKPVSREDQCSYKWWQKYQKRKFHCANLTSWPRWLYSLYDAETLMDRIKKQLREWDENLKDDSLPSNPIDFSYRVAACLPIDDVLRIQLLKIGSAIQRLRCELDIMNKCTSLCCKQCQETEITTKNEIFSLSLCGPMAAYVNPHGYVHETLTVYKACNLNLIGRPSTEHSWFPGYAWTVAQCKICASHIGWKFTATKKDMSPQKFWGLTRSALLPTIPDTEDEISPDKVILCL
T4 sequence (Q16531 whole entry partner): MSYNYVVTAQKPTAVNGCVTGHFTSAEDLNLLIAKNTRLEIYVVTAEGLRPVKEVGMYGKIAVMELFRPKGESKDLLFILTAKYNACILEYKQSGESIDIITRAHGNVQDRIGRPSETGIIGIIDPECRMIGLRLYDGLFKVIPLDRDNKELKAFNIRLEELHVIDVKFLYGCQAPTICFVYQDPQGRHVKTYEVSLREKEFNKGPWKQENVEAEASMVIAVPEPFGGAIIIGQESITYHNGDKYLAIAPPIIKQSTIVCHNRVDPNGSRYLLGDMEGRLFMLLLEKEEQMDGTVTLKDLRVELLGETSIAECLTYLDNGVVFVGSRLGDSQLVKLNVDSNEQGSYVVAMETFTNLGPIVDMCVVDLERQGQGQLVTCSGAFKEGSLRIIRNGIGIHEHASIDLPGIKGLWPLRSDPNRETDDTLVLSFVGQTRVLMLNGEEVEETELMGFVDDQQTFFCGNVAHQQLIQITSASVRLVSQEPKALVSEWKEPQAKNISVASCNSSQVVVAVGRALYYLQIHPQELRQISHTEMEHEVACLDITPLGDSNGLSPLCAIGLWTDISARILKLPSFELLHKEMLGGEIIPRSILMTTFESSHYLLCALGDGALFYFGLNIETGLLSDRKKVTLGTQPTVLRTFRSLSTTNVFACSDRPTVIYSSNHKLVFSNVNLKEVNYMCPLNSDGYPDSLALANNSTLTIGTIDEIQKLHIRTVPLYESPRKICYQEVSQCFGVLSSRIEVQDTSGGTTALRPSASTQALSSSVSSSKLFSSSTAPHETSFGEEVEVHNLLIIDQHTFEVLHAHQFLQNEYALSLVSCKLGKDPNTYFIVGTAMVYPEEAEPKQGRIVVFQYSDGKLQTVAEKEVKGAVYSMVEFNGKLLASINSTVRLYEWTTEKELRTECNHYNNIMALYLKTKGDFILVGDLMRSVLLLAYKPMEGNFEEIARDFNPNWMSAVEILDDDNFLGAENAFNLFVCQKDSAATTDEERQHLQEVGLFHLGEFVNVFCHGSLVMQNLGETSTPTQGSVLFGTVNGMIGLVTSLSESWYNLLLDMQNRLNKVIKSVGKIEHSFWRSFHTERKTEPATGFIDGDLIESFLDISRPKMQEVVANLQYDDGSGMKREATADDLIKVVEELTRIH
T7 sequence (P15170 whole entry): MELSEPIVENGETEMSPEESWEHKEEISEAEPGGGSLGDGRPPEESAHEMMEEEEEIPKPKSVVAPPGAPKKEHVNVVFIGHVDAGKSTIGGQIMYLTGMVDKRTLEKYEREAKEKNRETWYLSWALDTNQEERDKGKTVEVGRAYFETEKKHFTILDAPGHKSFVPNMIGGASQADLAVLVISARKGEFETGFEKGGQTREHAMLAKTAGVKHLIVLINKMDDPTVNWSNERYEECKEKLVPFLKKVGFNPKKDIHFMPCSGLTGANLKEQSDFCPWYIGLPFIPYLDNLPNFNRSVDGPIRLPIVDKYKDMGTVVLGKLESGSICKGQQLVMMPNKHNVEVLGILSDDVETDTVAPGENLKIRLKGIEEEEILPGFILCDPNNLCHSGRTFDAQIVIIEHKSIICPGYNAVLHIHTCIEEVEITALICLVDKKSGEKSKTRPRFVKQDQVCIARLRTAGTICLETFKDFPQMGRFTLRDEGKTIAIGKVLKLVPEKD
T7 sequence (Q96SW2 whole entry): as the sequence (Q96SW2 whole entry) above
T7 sequence (Q16531 whole entry partner): as the sequence (Q16531 whole entry partner) above
T2 sequence (P30291 whole entry): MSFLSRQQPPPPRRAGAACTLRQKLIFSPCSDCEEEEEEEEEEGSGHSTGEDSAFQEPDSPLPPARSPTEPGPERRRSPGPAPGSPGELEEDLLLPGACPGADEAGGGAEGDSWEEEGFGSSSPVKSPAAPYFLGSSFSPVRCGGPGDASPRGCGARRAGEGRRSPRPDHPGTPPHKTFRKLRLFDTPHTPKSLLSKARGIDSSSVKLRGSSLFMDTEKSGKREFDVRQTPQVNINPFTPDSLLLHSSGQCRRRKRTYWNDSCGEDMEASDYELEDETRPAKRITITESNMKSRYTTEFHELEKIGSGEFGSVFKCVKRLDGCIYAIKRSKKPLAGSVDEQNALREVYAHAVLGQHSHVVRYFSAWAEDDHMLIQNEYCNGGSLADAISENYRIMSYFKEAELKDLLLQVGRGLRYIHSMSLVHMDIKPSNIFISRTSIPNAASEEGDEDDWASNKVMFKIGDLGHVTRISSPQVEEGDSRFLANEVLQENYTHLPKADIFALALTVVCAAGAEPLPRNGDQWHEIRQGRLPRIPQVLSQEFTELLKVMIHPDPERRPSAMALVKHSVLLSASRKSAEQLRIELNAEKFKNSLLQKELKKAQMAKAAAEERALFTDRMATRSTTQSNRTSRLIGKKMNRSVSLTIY
T2 sequence (Q96SW2 whole entry): as the sequence (Q96SW2 whole entry) above
T2 sequence (Q16531 whole entry partner): as the sequence (Q16531 whole entry partner) above
T6 sequence (P48729 whole entry): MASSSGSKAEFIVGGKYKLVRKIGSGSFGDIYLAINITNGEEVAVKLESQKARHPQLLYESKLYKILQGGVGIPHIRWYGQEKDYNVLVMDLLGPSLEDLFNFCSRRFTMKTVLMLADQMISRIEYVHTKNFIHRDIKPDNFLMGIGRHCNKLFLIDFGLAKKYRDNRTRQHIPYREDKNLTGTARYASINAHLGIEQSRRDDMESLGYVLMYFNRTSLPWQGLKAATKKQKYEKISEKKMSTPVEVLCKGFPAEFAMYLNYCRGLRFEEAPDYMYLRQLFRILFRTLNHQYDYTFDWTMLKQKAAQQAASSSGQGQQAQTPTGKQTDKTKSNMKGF
T6 sequence (Q96SW2 whole entry): as the sequence (Q96SW2 whole entry) above
T6 sequence (Q16531 whole entry partner): as the sequence (Q16531 whole entry partner) above
T5 sequence (Q9UKT9 whole entry): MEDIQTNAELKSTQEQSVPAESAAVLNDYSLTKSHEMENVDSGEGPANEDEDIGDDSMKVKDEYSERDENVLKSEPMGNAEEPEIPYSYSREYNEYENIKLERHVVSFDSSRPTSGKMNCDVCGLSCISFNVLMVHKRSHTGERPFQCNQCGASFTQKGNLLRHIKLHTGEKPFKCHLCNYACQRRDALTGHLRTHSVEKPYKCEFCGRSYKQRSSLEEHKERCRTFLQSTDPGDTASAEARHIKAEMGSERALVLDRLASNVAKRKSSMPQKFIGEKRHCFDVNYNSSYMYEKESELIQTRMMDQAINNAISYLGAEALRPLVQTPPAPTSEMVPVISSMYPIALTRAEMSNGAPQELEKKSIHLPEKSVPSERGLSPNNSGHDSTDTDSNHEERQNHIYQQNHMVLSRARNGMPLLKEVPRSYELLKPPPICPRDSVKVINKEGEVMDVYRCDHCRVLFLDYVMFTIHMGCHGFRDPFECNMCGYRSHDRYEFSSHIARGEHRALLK
T5 sequence (Q96SW2 whole entry): as the sequence (Q96SW2 whole entry) above
T5 sequence (Q16531 whole entry partner): as the sequence (Q16531 whole entry partner) above
T1 sequence (Q96SW2 whole entry): as the sequence (Q96SW2 whole entry) above

Row | SMILES | inhibition at 0.5 µM ([1]; at 0.5µM, read-out: Inhibition rate (%) at 0.5µM) | inhibition at 2 µM ([1]; at 2 µM, read-out: Inhibition rate (%) at 2 µM) | Degradation of substrate protein WEE1 (substrate protein remaining %) (WEE1) | Degradation of substrate protein IKZF1 (substrate protein remaining %) (IKZF1) | Degradation of substrate protein IKZF2 (substrate protein remaining %) (IKZF2) | Degradation of substrate protein IKZF3 (substrate protein remaining %) (IKZF3) | Degradation of substrate protein CKla (substrate protein remaining %) (CK1a) | Degradation of substrate protein GSPT1 (substrate protein remaining %) (GSPT1) | IC50 (MCF7)
1 | O=C1CCC(c2cncc(CCl)c2)C(=O)N1 (stereo not drawn) [GT-06991, 3-(5-(Chloromethyl)pyridin-3-yl)piperidine-2,6-dione] | 30 to 40% | 53 to 60% | B (B is defined as substrate protein remaining % > 80%) | B (B is defined as substrate protein remaining % > 80%) | A (A is defined as 0% ≤ substrate protein remaining % ≤ 80%) | B (B is defined as substrate protein remaining % > 80%) | B (B is defined as substrate protein remaining % > 80%) | B (B is defined as substrate protein remaining % > 80%) | 
2 | O=C1CCC(c2cnc(CO)c(F)c2)C(=O)N1 (stereo not drawn) [GT-07049, 3-(5-Fluoro-6-(hydroxymethyl)pyridin-3-yl)piperidine-2,6-dione] |  |  | B (B is defined as substrate protein remaining % > 80%) | B (B is defined as substrate protein remaining % > 80%) | A (A is defined as 0% ≤ substrate protein remaining % ≤ 80%) | A (A is defined as 0% ≤ substrate protein remaining % ≤ 80%) | A (A is defined as 0% ≤ substrate protein remaining % ≤ 80%) | A (A is defined as 0% ≤ substrate protein remaining % ≤ 80%) | 1 to 5 µM
3 | NCc1cncc(N2CCC(=O)NC2=O)c1 [GT-07077, 1-(5-(Aminomethyl)pyridin-3-yl)dihydropyrimidine-2,4(1H,3H)-dione] |  |  | B (B is defined as substrate protein remaining % > 80%) | B (B is defined as substrate protein remaining % > 80%) | B (B is defined as substrate protein remaining % > 80%) | B (B is defined as substrate protein remaining % > 80%) | B (B is defined as substrate protein remaining % > 80%) | A (A is defined as 0% ≤ substrate protein remaining % ≤ 80%) | 1 to 5 µM
4 | O=C1CCC(Nc2cc(CO)ccn2)C(=O)N1 (stereo not drawn) [GT-07366, 3-((4-(Hydroxymethyl)pyridin-2-yl)amino)piperidine-2,6-dione] |  |  | B (B is defined as substrate protein remaining % > 80%) | B (B is defined as substrate protein remaining % > 80%) | B (B is defined as substrate protein remaining % > 80%) | B (B is defined as substrate protein remaining % > 80%) | A (A is defined as 0% ≤ substrate protein remaining % ≤ 80%) | A (A is defined as 0% ≤ substrate protein remaining % ≤ 80%) | 1 to 5 µM
5 | O=C1CCC(c2ncccc2CO)C(=O)N1 (stereo not drawn) [GT-07370, 3-(3-(Hydroxymethyl)pyridin-2-yl)piperidine-2,6-dione] |  |  | B (B is defined as substrate protein remaining % > 80%) | B (B is defined as substrate protein remaining % > 80%) | B (B is defined as substrate protein remaining % > 80%) | B (B is defined as substrate protein remaining % > 80%) | A (A is defined as 0% ≤ substrate protein remaining % ≤ 80%) | A (A is defined as 0% ≤ substrate protein remaining % ≤ 80%) | 1 to 5 µM
6 | O=C1CCC(Nc2ccc(CO)nc2)C(=O)N1 (stereo not drawn) [GT-07446, 3-((6-(Hydroxymethyl)pyridin-3-yl)amino)piperidine-2,6-dione] |  |  | A (A is defined as 0% ≤ substrate protein remaining % ≤ 80%) | A (A is defined as 0% ≤ substrate protein remaining % ≤ 80%) | A (A is defined as 0% ≤ substrate protein remaining % ≤ 80%) | A (A is defined as 0% ≤ substrate protein remaining % ≤ 80%) | A (A is defined as 0% ≤ substrate protein remaining % ≤ 80%) | A (A is defined as 0% ≤ substrate protein remaining % ≤ 80%) | 1 to 5 µM
7 | O=Cc1cccnc1NC1CCC(=O)NC1=O (stereo not drawn) [GT-07447, 2-((2,6-Dioxopiperidin-3-yl)amino)nicotinaldehyde] |  |  | A (A is defined as 0% ≤ substrate protein remaining % ≤ 80%) | A (A is defined as 0% ≤ substrate protein remaining % ≤ 80%) | A (A is defined as 0% ≤ substrate protein remaining % ≤ 80%) | A (A is defined as 0% ≤ substrate protein remaining % ≤ 80%) | A (A is defined as 0% ≤ substrate protein remaining % ≤ 80%) | A (A is defined as 0% ≤ substrate protein remaining % ≤ 80%) | 1 to 5 µM
8 | O=C1CCC(Nc2ccc(CO)cn2)C(=O)N1 (stereo not drawn) [GT-07551, 3-((5-(Hydroxymethyl)pyridin-2-yl)amino)piperidine-2,6-dione] |  |  | A (A is defined as 0% ≤ substrate protein remaining % ≤ 80%) | B (B is defined as substrate protein remaining % > 80%) | A (A is defined as 0% ≤ substrate protein remaining % ≤ 80%) | B (B is defined as substrate protein remaining % > 80%) | B (B is defined as substrate protein remaining % > 80%) | B (B is defined as substrate protein remaining % > 80%) | 1 to 5 µM
9 | CC(C)(C)[Si](C)(C)OCc1cnc(NC2CCC(=O)NC2=O)nc1 (stereo not drawn) [GT-07808, 3-((5-(((tert-Butyldimethylsilyl)oxy)methyl)pyrimidin-2-yl)amino)piperidine-2,6-dione] |  |  | A (A is defined as 0% ≤ substrate protein remaining % ≤ 80%) | A (A is defined as 0% ≤ substrate protein remaining % ≤ 80%) | A (A is defined as 0% ≤ substrate protein remaining % ≤ 80%) | A (A is defined as 0% ≤ substrate protein remaining % ≤ 80%) | B (B is defined as substrate protein remaining % > 80%) | B (B is defined as substrate protein remaining % > 80%) | 
10 | O=C1CCC(Nc2ncc(CO)cn2)C(=O)N1 (stereo not drawn) [GT-07809, 3-((5-(Hydroxymethyl)pyrimidin-2-yl)amino)piperidine-2,6-dione] |  |  | A (A is defined as 0% ≤ substrate protein remaining % ≤ 80%) | A (A is defined as 0% ≤ substrate protein remaining % ≤ 80%) | A (A is defined as 0% ≤ substrate protein remaining % ≤ 80%) | A (A is defined as 0% ≤ substrate protein remaining % ≤ 80%) | B (B is defined as substrate protein remaining % > 80%) | B (B is defined as substrate protein remaining % > 80%) | 
